Test results: ChEMBL document CHEMBL4177530, “Bufospirostenin A and Bufogargarizin C, Steroids with Rearranged Skeletons from the Toad Bufo bufo gargarizans” (J Nat Prod, 2017)
The source made the active and inactive calls. No cut-off for these calls is given here.

Experiments:
Sus scrofa [1] = species: Sus scrofa; test: Inhibition of Na/K-ATPase in pig kidney microsomal membranes assessed as reduction in inorganic phosphate release from ATP at 12.5 uM incubated for 15 mins by spectrophotometry; assay type: cell membranes
Sus scrofa [2] = species: Sus scrofa; test: Inhibition of Na/K-ATPase in pig kidney microsomal membranes assessed as reduction in inorganic phosphate release from ATP at 25 uM incubated for 15 mins by spectrophotometry; assay type: cell membranes

| Structure (SMILES) | inhibition (Sus scrofa [1]) | inhibition (Sus scrofa [2]) |
| --- | --- | --- |
| C[C@]12CCC3=C(C=CC4=C(C3)[C@@H]3C[C@H](C4)O3)[C@H]1CC[C@@H]2c1ccc(=O)oc1 | inactive | inactive |
| C=C1CC[C@@]2(OC1)O[C@H]1C[C@H]3[C@@H]4CC=C5C[C@@H](O)C[C@H]5[C@](C)(O)[C@H]4CC[C@]3(C)[C@H]1[C@@H]2C | 21% | 43% |
| C[C@]12CC[C@H](O)C[C@H]1CC[C@@H]1[C@@H]2CC[C@]2(C)[C@@H](c3ccc(=O)oc3)CC[C@]12O | 100% | 100% |
